Test results taken from patent US20090286787A1, “SUBSTITUTED GAMMA LACTAMS AS THERAPEUTIC AGENTS” (ALLERGAN, INC., priority 2008, published 2009).

System: lashes and adjacent hairs of patients
Experiment: lash and hair appearance in glaucoma patients treated in only one eye
Type: in vivo, human
Settings: unilateral treatment
Description: In the course of treating patients having glaucoma, treatment may only be appropriate in one eye. […] The lash appearance on the lids of the treated eyes would have appeared quite attractive if it represented a bilateral phenomenon. As a result of its asymmetric nature, the long lashes on one side could be construed as disturbing from a cosmetic standpoint. A systemic examination was preformed as a result of the asymmetric phenomenon. It soon became apparent that this altered appearance was not an isolated finding. […] Definite differences could be identified to varying degrees in the lashes and adjacent hairs of all patients who were taking the drug on a unilateral basis for longer than 6 months.
The changes in the lashes were apparent on gross inspection in several patients once attention was focused on the issue. In those with light colored hair and lashes, the differences were only seen easily with the aid of the high magnification and lighting capabilities of the slit lamp biomicroscope. In the course of glaucoma follow-up examination, attention is generally immediately focused on the eye itself. As a result of the high power magnification needed only one eye is seen at a time and the eye is seen at a high enough power that the lashes are not in focus. […]

## CCNC(=O)CCC/C=C\C[C@@H]1[C@@H](/C=C/[C@@H](O)CCc2ccccc2)[C@H](O)C[C@@H]1O [bimatoprost]
  lash growth, treated eye versus non-treated eye: longer, thicker, and fuller in the treated eye than in the non-treated eye
